In patent US7674580B2, “Compositions and methods for the modulation of sphingolipid metabolism and/or signaling” (priority 2002, dated 2010):
Marks after values point to notes of the source that are not given here.

Experiments:
[1] = tested on: Sply^05091 homozygous flies; experiment: LCB/LCBP levels in Sply^05091 homozygous flies grown on sphingosine kinase inhibitor (HPLC); type: in vivo, Drosophila melanogaster
Protocol: (§1) Analysis of Drosophila sphingolipids: 100 mg of flies were homogenized in 6 ml of ice cold methanol/water 1:1 (vol:vol) with a Potter-Elvehjem homogenizer with a loose pestle followed by a tight pestle until the pestle moved smoothly. Extract was further homogenized by tip sonication for 3 times 20 sec. Extract was spun at low speed and supernatant was removed and dried down in speed vac. Extract was resuspended in 500 μl of methanol containing 0.1M ammonium hydroxide and incubated for 1 hour at 37° C. Following incubation the extract was dried down in speed vac. Extract was resuspended in 500 μl of 50% methanol containing 0.1% glacial acetic acid and applied to a C18E STRATA solid phase extraction column. C18E STRATA column was washed with 50% methanol containing 0.1% glacial acetic acid followed by a wash with 100% methanol containing 0.1% glacial acetic acid. Lipids of interest were eluted with methanol/10 mM ammonium acetate, 9:1 (vol:vol). Lipids were dried down in speed vac. and o-pthaladehyde labeled for HPLC analysis as previously described (Kim, S., Fyrst, H. and Saba, J. (2000). Genetics 156, 1519-29.).

[2] = tested on: Sply^05091 homozygous flies; experiment: Adult flight performance of Sply^05091 homozygous flies grown on sphingosine kinase inhibitor; type: in vivo, Drosophila melanogaster
wild type flies = experiment: LCBP levels in wild type flies grown on sphingosine kinase inhibitor; type: in vivo, Drosophila melanogaster; conditions: wild type flies grown on D,L-threo-DHS
Protocol: as §1

bst1Δ cells = experiment: Sphingosine sensitivity (growth) of SPL-deleted yeast; type: cell-based, S. cerevisiae
Text: Within certain embodiments, an in vitro assay for SPL activity may be performed using cellular extracts prepared from cells that express the polypeptide of interest. […] It has been found, within the context of the present invention, that yeast cells containing deletion of the SPL gene (BST1) are suitable for use in evaluating the SPL activity of a polypeptide. bst1Δ cells can be generated from S. cerevisiae using standard techniques, such as PCR, as described herein. […] For such a test, a polypeptide is preferably expressed on a high-copy yeast vector (such as pYES2, which is available from Invitrogen) yielding more than 20 copies of the gene per cell. In general, a polypeptide has SPL activity if, when expressed using such a vector in a bst1Δ cell, a cellular extract results in a two-fold increase in substrate degradation over the level observed for an extract prepared from cells not expressing the polypeptide.
(§2) A further test for SPL activity may be based upon functional complementation in the bst1Δ strain. It has been found, within the context of the present invention, that bst1Δ cells are highly sensitive to D-erythro-sphingosine.
Functional complementation in yeast: Strains of interest were grown to saturation in liquid culture for 2-3 days. […] Plates were incubated at 30° C. for two days and assessed visually for differences in growth.

wildtype cells = experiment: Sphingosine sensitivity (growth) of wildtype yeast; type: cell-based, S. cerevisiae; conditions: 10 μM sphingosine
Protocol: as §2
Functional complementation in yeast: Strains of interest were grown to saturation in liquid culture for 2-3 days. They were then resuspended in minimal medium, placed in the first row of a 96-well plate and diluted serially from 1:2 to 1:4000 across the plate. […] Louis, Mo.). […] At this concentration of NP40, no effects on cell viability are observed. Plates were incubated at 30° C. for two days and assessed visually for differences in growth.

[3] = Sply^05091 homozygous flies + 1 mM D,L-threo-DHS, separate experiment, mixed-age adults

| Compound | Reduction of LCBP levels ([1]; Sply^05091 homozygotes grown in the presence of sphingosine kinase inhibitor) | C14/16 LCBPs, percentage of untreated controls [1, 3] | C14/16 LCBs, percentage of untreated controls [1, 3] | Average flight score ([2]; Sply^05091 + 1 mM D,L-threo-DHS, score upward=3, lateral=2, downward=1, flightless=0, ±s.e.m., untreated Sply^05091 0.40 ± 0.036) | Flight performance ([2]; Sply^05091 mutants grown on media supplemented with 10 μM D,L-threo-DHS, F2 progeny) | LCBP levels, % of normal levels (wild type flies) | Growth of bst1Δ cells (bst1Δ cells; concentrations as low as 10 μM sphingosine) | Proliferation of dpl1Δ strain (bst1Δ cells; media containing low concentrations of D-erythro-sphingosine) | Growth of wildtype cells (wildtype cells) |
| --- | --- | --- | --- | --- | --- | --- | --- | --- | --- |
| CCCCCCCCCCCCCCC[C@H](O)[C@@H](N)CO [D,L-threo-DHS, D,L-threo-dihydrosphingosine] | approximately 20% | 81%* | 136%* | 0.62 ± 0.057 | slight but significant improvement in flight performance | 20% |  |  |  |
| CCCCCCCCCCCCC/C=C/[C@@H](O)[C@@H](N)CO [D-erythro-sphingosine] |  |  |  |  |  |  | completely inhibit the growth | cannot proliferate | no effect on the growth |
